Data as given in publication PMC9023740, “Mucin-Type O-Glycosylation Proximal to β-Secretase Cleavage Site Affects APP Processing and Aggregation Fate” (Frontiers in Chemistry, 2022).

Assays:
Aβ40 = biological target: T1, Aβ40 (Homo sapiens, UniProt P05067); assay: ThT aggregation kinetics assay of Aβ40 with APP (glyco)peptides; conditions: 50 mM phosphate buffer pH 7.4, 20 µM ThT, 37°C
T1 construct: Aβ40 peptide was synthesized on a PS3 solid phase peptide synthesizer; made in house; host or cells: chemical solid-phase peptide synthesis (Fmoc), no expression host
Procedure: Lyophilized peptide powder was dissolved in aqueous NaOH solution (2 mM), and the pH was adjusted to ∼11 by using 100 mM NaOH solution. The solution was sonicated for 1 h in an ice−water bath and then filtered through a 0.22 μm filter (Millipore) and kept on ice before use. The concentration of the peptide solution was determined by using the tyrosine UV absorbance at 280 nm (ε = 1280 M^−1 cm^−1).
The aggregation kinetics of Aβ40 in the absence and presence of APP (glyco)peptides was performed using ThT binding assay. The monomerized Aβ40 peptide solution was diluted to a final concentration of 10 µM in 50 mM phosphate buffer (pH 7.4) and 20 µM ThT dye. For the co-incubation assays with APP (glyco)peptides, APP stock solutions of 120 µM were added to the prepared Aβ40 for final (glyco) peptide concentrations of 10 µM or 50 µM and Aβ40 concentration of 10 µM in 50 mM phosphate buffer (pH 7.4) with 20 µM ThT dye. […] The plate was sealed with a microplate cover and loaded into a Gemini SpectraMax EM fluorescence plate reader (Molecular Devices, Sunnyvale, CA) and incubated at 37°C. The ThT fluorescence was measured from the bottom of the plate at 10 min intervals, with 5 s of shaking, and with an excitation and emission wavelengths of 440 and 480 nm, respectively. […]
°C. ThT fluorescence was measured in 10 minute intervals.

[1] = Analytical RP-HPLC retention time, read as hydrophobicity/hydrophilicity; assay type: physicochemical; conditions: C18 (Phenomenex Aeris Peptide C18 150 x 4.6 mm, 0.8 ml/min), 0.1% TFA water/acetonitrile, 0-60% B over 30 min, 214 nm, Supplementary S2-S9
Procedure: Purification of all (glyco)peptides and their corresponding analyses were performed on a 1,260 Agilent Infinity system. The analytical RP-HPLC method uses a Phenomenex Aeris Peptide C18 column (150 mm × 4.6 mm, 3.6 μm, 100 Å) at 0.8 ml/min flow rate or a Vydac Denali C18 column (250 mm × 4.6 mm, 5 μm, 120Å) at 1 ml/min flow rate, with 0.1% TFA in water (A) and 0.1% TFA in acetonitrile (B) as the eluents. The elution gradient for analytical RP-HPLC purification was 0–60% B over 30 min. The preparative RP-HPLC method uses the Grace Vydac monomeric C18 column (250 mm × 22 mm, 15–20 μm, 300Å) at 10 ml/min flow rate, with 0.1% TFA in water (A) and 0.1% TFA in acetonitrile (B) as the eluents. The elution gradient for preparative RP-HPLC purification was 0–50% over 110 min. The (glyco)peptides were detected at 214 nm by using a UV-Vis detector (Agilent 1,260 Infinity DAD). Purified (glyco)peptides were characterized by matrix-assisted laser desorption ionization time-of-flight mass spectrometry (MALDI-TOF MS) with a Voyager-DE STR system or a Bruker Microflex system, using α-cyano-4-hydroxycinnamic acid as matrix.
Automated solid-phase peptide synthesis (SPPS) approach on Tentagel S RAM resin was used to assemble the APP (glyco)peptides. […]

[2] = biological target: T2, Recombinant human BACE-1 (rhBACE-1) (Homo sapiens, UniProt P56817); assay: Proteolytic cleavage of APP (glyco)peptides by BACE-1, RP-HPLC peak integration; assay type: biochemical; conditions: 100 μM substrate, 50 nM rhBACE-1, 0.1 M sodium acetate pH 4.0, 24 h, 37°C, dark; RP-HPLC peak integration at 214 nm, averaged from two injections, SD <5%
T2 construct: purchased R&D Systems #ES004 and #931-AS, respectively (so in the source)
Procedure: All APP-based substrates were prepared as 10 mM stocks in DMSO. Before proteolysis, the activity of BACE-1 was verified by the reaction with the fluorogenic BACE-1substrate Mca-[…](Dnp)RR-NH2 ([Koike et al., 1999]) as per the manufacturer’s instructions. For the proteolysis assay, APP-based substrates were diluted in BACE-1 activity buffer (0.1 M sodium acetate, pH 4.0) to the final assay concentration of 100 μM. BACE-1 was diluted to 50 nM final concentration. Reactions were incubated for 24 h at 37°C in the dark. After the incubation period, the enzyme cleavage solutions containing APP-based substrates and BACE-1 were analyzed using the analytical RP-HPLC method on the Aeris C18 column with 0.1% TFA in water (A) and 0.1% TFA in acetonitrile (B) as eluents and 0–60% B as the elution gradient over 30 min with a flow rate of 0.8 ml/min, and detection at 214 nm or the Vydac Denali C18 column with 0.1% TFA in water (A) and 0.1% TFA in acetonitrile (B) as eluents and 0–60% B as the elution gradient over 30 min with a flow rate of 1 ml/min, and detection at 214 nm. The identity of intact and cleaved (N- and C-terminal) fragments of (glyco)peptides in the absence and presence of BACE-1 (β-secretase) was confirmed by MALDI-TOF and their percentages were evaluated by the integration of the RP-HPLC peaks (averaged from two injections).
Glycosylation can alter substrate recognition and impact enzyme activity in either a positive (enhancing) or negative (inhibiting) manner ([Goettig, 2016]; [Goth et al., 2018]). The mucin-type O-linked glycosylation of a protein may not only affect its conformation but also affect its transport and localization in the cell ([Matsuura et al., 1989]; [Chen et al., 2002]). Proteases are highly regulated by post-translational modifications and drive fate, localization, and activity of many proteins ([Bond, 2019]). Certain mutations can also affect the subcellular localization of the cleavage event by crucial proteases and mediate a different cellular mechanism for the protein ([Haass et al., 1995]). […] Therefore, similar enzyme cleavage assays with BACE-1 were set up to explore the effect of the Swedish mutation, length of the amino acid sequence, glycan position and valency on the proteolytic susceptibility of 3–12. BACE1 produced two fragments upon cleavage of (glyco)peptides, for which yields were determined after 24 h treatment. The yields of intact peptide and fragments were evaluated by the RP-HPLC peaks integration (Table 3, and the Supplementary Material S20–S32).
3. Enzyme cleavage assays with APP (glyco)peptides 3-12 by RP-HPLC and MALDI-TOF MS
For the BACE1 enzyme cleavage assay, APP-based (glyco)peptide substrates were diluted in BACE1 activity buffer and incubated with BACE1 for 24 h at 37 °C in the dark. After the incubation period, the enzyme cleavage solutions containing APP-based (glyco)peptide substrates and BACE1 were analyzed using analytical RP-HPLC.
RP-HPLC gradient on Phenomenex Aeris Peptide C18 column (150 x 4.6 mm, 3.6 µm, 100Å):
Eluents were 0.1% TFA in water (A) and 0.1% TFA in acetonitrile (B). The elution gradient was 0-60%B in 30 minutes with a flow rate of 0.8 mL/min. Detection was at λ = 214 nm.
S*/T*= Ser(-α-GalNAc) 1/Thr(-α-GalNAc) 2
(a) APP665-680, 3 in activity buffer
(b) APP665-680 (3) + BACE1 in activity buffer […]

[3] = CD spectroscopy, secondary structure content by BeStSel; assay type: physicochemical; conditions: CD, BeStSel, 0.065 mg/ml, 25°C
Procedure: All (glyco)peptides were analyzed for their secondary structure using circular dichroism (CD) spectroscopy on a Jasco-810 spectropolarimeter (Jasco, Easton, MD) in three solvent systems: water, 10 mM sodium phosphate buffer (pH 7.4), and 50% trifluoroethanol (TFE) in water (v/v) mixture. The CD spectra were recorded using a quartz cell of 1 mm optical path length over a wavelength range of […] with a scanning speed of 100 nm/min and a response time of 4 s at 25°C. A concentration of 0.065 mg/ml, determined using the analytical RP-HPLC method, gave the […] signal-to-noise ratio for all (glyco)peptides. All spectra were baseline-corrected to account for the signal contribution from solvent and then converted into molar ellipticity (deg cm^2 dmol^−1) ([Sreerama and Woody, 2000]). Lastly, the percentages of all secondary structures were determined using the BeStSel method ([Micsonai et al., 2018]; [Singh et al., 2021]).
To study the role of O-glycosylation on the conformation of APP glycopeptides, circular dichroism (CD) spectroscopy was used to probe the secondary structure in three different solvents, water, sodium phosphate buffer (10 mM, pH 7.4), and 50% trifluoroethanol (TFE) in water (v/v) (Figure 1). The spectra were further analysed for secondary structure estimations by Beta Structure Selection (BeStSel) method, specifically designed for the analysis of beta sheet-rich proteins (Table 2) ([Micsonai et al., 2015], [2018]).

[4] = (B) 10 mM sodium phosphate buffer, pH 7.4

T2 sequence (P56817 46-457 limits assumed): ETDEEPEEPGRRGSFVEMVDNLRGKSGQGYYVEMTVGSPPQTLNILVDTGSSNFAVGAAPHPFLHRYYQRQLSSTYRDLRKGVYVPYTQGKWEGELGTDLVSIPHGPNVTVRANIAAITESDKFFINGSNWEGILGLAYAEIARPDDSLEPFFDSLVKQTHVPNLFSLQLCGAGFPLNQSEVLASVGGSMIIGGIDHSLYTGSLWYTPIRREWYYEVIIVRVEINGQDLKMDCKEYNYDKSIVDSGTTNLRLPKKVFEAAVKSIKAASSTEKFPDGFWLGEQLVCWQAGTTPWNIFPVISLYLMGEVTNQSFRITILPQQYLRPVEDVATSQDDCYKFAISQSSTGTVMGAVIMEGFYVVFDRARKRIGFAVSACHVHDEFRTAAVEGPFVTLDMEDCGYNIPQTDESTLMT
T1 sequence (P05067 672-711 limits assumed): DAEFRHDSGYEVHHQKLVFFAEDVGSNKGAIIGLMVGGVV

## CC(=O)N[C@H]1C(O)O[C@H](CO)[C@H](O)[C@@H]1O (mixture of isomers) [GalNAc, N-acetylgalactosamine]
Aβ40; additive 10 and 50 µM, Aβ40 10 µM
  Δt50 (t50 with additive - Aβ40 t50): < 0.5 h

## Aβ40: amyloid-β 40 peptide made by Fmoc SPPS, model peptide for studying protein aggregation
Aβ40; Aβ40 10 μM alone, triplicate
  half time (t 50) of the growth phase of Aβ40 amyloidogenesis: approximately 8 h

## IKT*EEISEVKM∼DAEFRHDSG [compound 8, native APP 661-680 glycopeptide with O-GalNAc on Thr^663]
[1]
  RP-HPLC t R: 14.4 min
[2]
  BACE-1 activity, Cleaved (%): 8.46%
  BACE-1 activity, Recovered (%): 91.5%
[3]; (A) water
  RC (%) random coil: 87.4%
  α-H (%) α-helix: 1.4%
  β-AP (%) anti-parallel β-sheet: 5.4%
  β-P (%) parallel β-sheet: 0.0%
  β-T (%) β-turn: 5.7%
[3]; [4]
  RC (%) random coil: 30.4%
  α-H (%) α-helix: 8.8%
  β-AP (%) anti-parallel β-sheet: 42.6%
  β-P (%) parallel β-sheet: 0.0%
  β-T (%) β-turn: 18.3%
[3]; (C) TFE/water = 1:1 (v/v)
  RC (%) random coil: 8.3%
  α-H (%) α-helix: 85.7%
  β-AP (%) anti-parallel β-sheet: 0.0%
  β-P (%) parallel β-sheet: 0.0%
  β-T (%) β-turn: 6.0%
